Measurements reported in patent publication US3984432A, “Color photographic recording material” (priority 1973, dated 1976).

Test: Absorption maximum after colour development in a photographic silver halide layer according to Use Example I
Format: physicochemical
Settings: not given
How it was run: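 Coupling agent dispersed in tricresyl phosphate with gelatine at pH 6.5, mixed with silver bromide emulsion and hardener, cast on glass plates and dried at 32° C. Strips exposed to 500 Lux/cm^2 under a step wedge for 2 seconds, then processed at 24° C; absorption maximum read after colour development.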

SMILES | Abs.max. (single maximum)
CCCCC(CC)COP(=O)(CCCNC(=O)c1ccc(Cl)c(NC(=O)CC(=O)C(C)(C)C)c1)OCC(CC)CCCC (stereo not drawn) [(135)] | 445 nm
CCCCOP(=O)(CC(=O)Nc1cccc(NC(=O)CC(=O)c2ccccc2)c1)OCCCC [(109)] | 442 nm
COc1ccc(C(=O)NCCCP(=O)(OC(C)C)OC(C)C)cc1NC(=O)CC(=O)c1ccccc1Cl [(128)] | 447 nm
COc1ccc(C(=O)CC(=O)Nc2cc(C(=O)NCCCP(=O)(OC(C)C)OC(C)C)ccc2C(=O)NCCCP(=O)(OC(C)C)OC(C)C)cc1 [(131)] | 442 nm
CC(C)OP(=O)(OC(C)C)C1(C)CC(NC(=O)c2ccc(Oc3ccccc3)c(NC(=O)CC(=O)c3ccc(Cl)cc3)c2)CC(C)(C)C1 (stereo not drawn) [(144)] | 441 nm

Same assay, conditions: pyrazolone coupling agents

SMILES | Abs.max., first of two maxima (subsidiary maximum) | Abs.max., second of two maxima (absorption maximum)
CCCCOP(=O)(CCCOc1cc(OCCCP(=O)(OCCCC)OCCCC)cc(C(=O)Nc2cccc(C(=O)NC3=NN(c4nc5ccccc5s4)C(=O)C3)c2)c1)OCCCC [(258)] | 550 nm | 580 nm
CCCCOP(=O)(CCCOc1cc(OCCCP(=O)(OCCCC)OCCCC)cc(C(=O)Nc2cccc(C(=O)NC3=NN(c4c(C)cc(OC)cc4Cl)C(=O)C3)c2)c1)OCCCC [(260)] | 440 nm | 535 nm
CCCCC(CC)COP(=O)(CCCOc1cccc(C(=O)Nc2cccc(NC3=NN(c4c(Cl)cc(Cl)cc4Cl)C(=O)C3)c2)c1)OCC(CC)CCCC (stereo not drawn) [(422)] | 426 nm | 530 nm
CCCCC(CC)COP(=O)(CCCOc1cccc(C(=O)Nc2cccc(C(=O)NC3=NN(c4cccc(Cl)c4)C(=O)C3)c2)c1)OCC(CC)CCCC (stereo not drawn) [(256)] | 438 nm | 534 nm
CCCCC(CC)COP(=O)(CCCOc1cc(OCCCP(=O)(OCC(CC)CCCC)OCC(CC)CCCC)cc(C(=O)Nc2cccc(C(=O)NC3=NN(c4ccccc4)C(=O)C3)c2)c1)OCC(CC)CCCC (stereo not drawn) [(235)] | 440 nm | 532 nm
CC(C)OP(=O)(CCCCCOc1cccc(C(=O)Nc2ccc(C(=O)NC3=NN(c4c(Cl)cc(Cl)cc4Cl)C(=O)C3)cc2)c1)OC(C)C [(244)] | 434 nm | 542 nm
CC(C)OP(=O)(CCCCCOc1cc(OCCCCCP(=O)(OC(C)C)OC(C)C)cc(C(=O)Nc2cccc(C(=O)NC3=NN(c4c(Cl)cc(Cl)cc4Cl)C(=O)C3)c2)c1)OC(C)C [(243)] | 434 nm | 544 nm
CCCCOP(=O)(CCCOc1cc(OCCCP(=O)(OCCCC)OCCCC)cc(C(=O)Nc2cccc(NC3=NN(c4c(Cl)cc(Cl)cc4Cl)C(=O)C3)c2)c1)OCCCC [(424)] | 427 nm | 532 nm
CCCCC(CC)COP(=O)(CCCOc1cccc(OCC(=O)Nc2cccc(C(=O)NC3=NN(c4c(C)cc(C)cc4Cl)C(=O)C3)c2)c1)OCC(CC)CCCC (stereo not drawn) [(271)] | 440 nm | 532 nm
CCOP(=O)(CCCOc1ccc(NC2=NN(c3c(Cl)cc(Cl)cc3Cl)C(=O)C2)cc1)OCC [(404)] | 425 nm | 530 nm

Test: Solubility of coupling agents in tricresyl phosphate (oil) at 20° C (Table A)
Format: physicochemical
Settings: not given

SMILES | Solubility in g per g of tricresyl phosphate
CCC(C)(C)c1ccc(OCC(=O)Nc2cccc(C(=O)NC3=NN(c4c(Cl)cc(Cl)cc4Cl)C(=O)C3)c2)c(C(C)(C)CC)c1 | 0.6 g per g of tricresyl phosphate
CCCCC(CC)COP(=O)(CCCNC(=O)c1ccc(Cl)c(NC(=O)CC(=O)C(C)(C)C)c1)OCC(CC)CCCC (stereo not drawn) [(135)] | > 5 g per g of tricresyl phosphate
CCC(Oc1ccc(C(C)(C)CC)cc1C(C)(C)CC)C(=O)Nc1cc(Cl)c(C)c(Cl)c1O (stereo not drawn) [US-PS 2,801,171 Coupling agent No. (4)] | 0.4 g per g of tricresyl phosphate
CCCCCCCCCCCCCCCc1cccc(OC(CC)C(=O)Nc2cc(Cl)c(C)c(Cl)c2O)c1 (stereo not drawn) | 0.7 g per g of tricresyl phosphate
CCCCCCCCCCCCOc1cccc(OC(CC)C(=O)Nc2cc(Cl)c(C)c(Cl)c2O)c1 (stereo not drawn) | 0.7 g per g of tricresyl phosphate
CCCCOP(=O)(CC(=O)Nc1cccc(NC(=O)CC(=O)c2ccccc2)c1)OCCCC [(109)] | > 5 g per g of tricresyl phosphate
CCCCCCCCCCOc1cccc(OCCC(=O)Nc2cccc(NC(=O)CC(=O)c3ccccc3C)c2)c1 [DT-OS 2,039,970] | 1 g per g of tricresyl phosphate
COc1ccc(C(=O)NCCCP(=O)(OC(C)C)OC(C)C)cc1NC(=O)CC(=O)c1ccccc1Cl [(128)] | > 5 g per g of tricresyl phosphate
CCCCCCCCCCCCOc1cccc(OC(CC)C(=O)Nc2cccc(C(=O)NC3=NN(c4c(Cl)cc(Cl)cc4Cl)C(=O)C3)c2)c1 (stereo not drawn) | 0.4 g per g of tricresyl phosphate
CCCCCCCCCCCCCCCc1cccc(OC(CC)C(=O)Nc2cccc(C(=O)NC3=NN(c4c(Cl)cc(Cl)cc4Cl)C(=O)C3)c2)c1 (stereo not drawn) | 0.3 g per g of tricresyl phosphate
CCCCCCCCCCCCCCCCCCNS(=O)(=O)c1ccc(N(CCCC)CCCC)c(NC(=O)CC(=O)c2ccccc2)c1 [DT-OS 1,522,414] | 1.2 g per g of tricresyl phosphate
